Test results: patent EP3046573B1, “AMYLIN ANALOGUES” (Zealand Pharma A/S, priority 2013, dated 2015)
Numbered stars: 1 amine (or outer) side, 2 acyl side, 3 side chain; on linkers, the order of the positions; unused ones are H or OH. Bridge positions count the residues as written; N and C are the ends. Square brackets hold non-standard residues; d marks the D form. Peptide text beside a SMILES is read from it. * marks the point of attachment. C20 diacid = O=C(O)CCCCCCCCCCCCCCCCCCC(=O)*; γGlu = O=C(O)[C@H](CCC(=O)[*:2])N[*:1]; Hyp = O=C(O)[C@@H]1C[C@@H](O)CN1; NMeI = CC[C@H](C)[C@H](NC)C(=O)O; Sar = CNCC(=O)O

Test: Assessment of chemical stability: normalized purity by RP-HPLC after incubation at 40 °C
Type: physicochemical
Settings: normalized purity (T=0 set to 100), 0.2 mg/ml; for Chem. stability; 7 days, 40°C pH 4: pH 4, 7 days; for Chem. stability; 7 days, 40°C pH 7.5: pH 7.5, 7 days; for Chem. stability; 7 days, 40°C pH 9: pH 9, 7 days
Procedure: Samples of each test peptide were dissolved in MilliQ™ water, and the pH of the solution was adjusted to pH 4, pH 7.5 or pH 9, respectively, using either HCI or NaOH. The final peptide concentration was 0.2 mg/ml. Samples were placed in glass vials and incubated at 40 °C. The samples were analyzed by RP-HPLC on a C8 column with gradient elution using an ammonium formate/water eluent system, or on a C18 column with gradient elution using a trifluoroacetic acid/water eluent system. The area-percentage (area-%) of the main peak after incubation time T = t (relative to time T = 0) was determined by UV spectroscopy at 220 nm.
The purity was first determined as follows: Purity(area−%) = (area of main peak/total area of all peaks) × 100. [formula]
The purity was then normalized between time points by setting purity at time 0 (T=0) to 100 for each pH value for a given peptide, as follows: Normalised area−%at time t(T = t) = [area−%(T = t)/area−%(T = 0)] × 100. [formula]
The normalized purity values in Table 2 were determined after 7 days of incubation. Table 2. EC50, chemical stability and fibrillation data for compounds of the invention

Row | Compound | Chem. stability; 7 days, 40°C pH 4 | Chem. stability; 7 days, 40°C pH 7.5 | Chem. stability; 7 days, 40°C pH 9
1 | CC[C@H](C)[C@@H](C(=O)N[C@@H](CC(C)C)C(=O)N[C@@H](CO)C(=O)N[C@@H](CO)C(=O)N[C@H](C(=O)N[C@@H](CC(N)=O)C(=O)N[C@H](C(=O)NCC(=O)N[C@@H](CO)C(=O)N[C@@H](CC(N)=O)C(=O)N[C@H](C(=O)N1CCC[C@H]1C(N)=O)[C@@H](C)O)C(C)C)[C@@H](C)O)N(C)C(=O)[C@H](C)NC(=O)CN(C)C(=O)[C@H](Cc1ccccc1)NC(=O)[C@H](CC(N)=O)NC(=O)[C@H](CC(N)=O)NC(=O)[C@H](CO)NC(=O)[C@H](CO)NC(=O)[C@H](CCCNC(=N)N)NC(=O)[C@H](Cc1c[nH]cn1)NC(=O)[C@H](CC(C)C)NC(=O)[C@H](Cc1ccccc1)NC(=O)[C@H](CCC(=O)O)NC(=O)[C@H](C)NC(=O)[C@H](CC(C)C)NC(=O)[C@H](CCCNC(=N)N)NC(=O)[C@H](CCC(N)=O)NC(=O)[C@@H](NC(=O)[C@H](C)NC(=O)[C@@H]1CSSC[C@H](NC(=O)[C@H](CCCCN)NC(=O)[C@H](CCCCN)NC(=O)CC[C@H](NC(=O)CCCCCCCCCCCCCCCCCCC(=O)O)C(=O)O)C(=O)N[C@@H](CC(N)=O)C(=O)N[C@@H]([C@@H](C)O)C(=O)N[C@@H](C)C(=O)N[C@@H]([C@@H](C)O)C(=O)N1)[C@@H](C)O [Compound 87, [19CD]-isoGlu-KKC()NTATC()ATQRLAEFLHRSSNNF-Gly(Me)-A-Ile(Me)-LSSTNVGSNTP-NH2] ({C20 diacid-γGlu}-KKCNTATCATQRLAEFLHRSSNNF[Sar]A[NMeI]LSSTNVGSNTP-NH2; disulfide 3-8) | 63 area-% | 39 area-% | 40 area-%
2 | CC[C@H](C)[C@@H](C(=O)N[C@@H](CC(C)C)C(=O)N[C@@H](CO)C(=O)N[C@@H](CO)C(=O)N[C@H](C(=O)N[C@@H](CC(N)=O)C(=O)N[C@H](C(=O)NCC(=O)N[C@@H](CO)C(=O)N[C@@H](CC(N)=O)C(=O)N[C@H](C(=O)N1C[C@H](O)C[C@H]1C(N)=O)[C@@H](C)O)C(C)C)[C@@H](C)O)N(C)C(=O)[C@H](C)NC(=O)CN(C)C(=O)[C@H](Cc1ccccc1)NC(=O)[C@H](CC(N)=O)NC(=O)[C@H](CC(N)=O)NC(=O)[C@H](CO)NC(=O)[C@H](CO)NC(=O)[C@H](CCCNC(=N)N)NC(=O)[C@H](Cc1c[nH]cn1)NC(=O)[C@H](CC(C)C)NC(=O)[C@H](Cc1ccccc1)NC(=O)[C@H](CCC(=O)O)NC(=O)[C@H](C)NC(=O)[C@H](CC(C)C)NC(=O)[C@H](CCCNC(=N)N)NC(=O)[C@H](CCC(N)=O)NC(=O)[C@@H](NC(=O)[C@H](C)NC(=O)[C@@H]1CSSC[C@H](NC(=O)[C@H](CCCNC(=N)N)NC(=O)CC[C@H](NC(=O)CCCCCCCCCCCCCCCCCCC(=O)O)C(=O)O)C(=O)N[C@@H](CC(N)=O)C(=O)N[C@@H]([C@@H](C)O)C(=O)N[C@@H](C)C(=O)N[C@@H]([C@@H](C)O)C(=O)N1)[C@@H](C)O [Compound 105, [19CD]-isoGlu-RC()NTATC()ATQRLAEFLHRSSNNF-Gly(Me)-A-Ile(Me)-LSSTNVGSNT-Hyp-NH2] ({C20 diacid-γGlu}-RCNTATCATQRLAEFLHRSSNNF[Sar]A[NMeI]LSSTNVGSNT[Hyp]-NH2; disulfide 2-7) | 57 area-% | 57 area-% | 42 area-%
